These are literature values, as cited in patent publication US11458199B2, “Liposome formulations” (OPKO Pharmaceuticals, LLC, priority 2012, dated 2022).

pKd: −log10 of the molar value.

One data set concerns PCME. As to conditions: retrospective study, prevention of PCME after cataract surgery.
The target of the next data set is VEGF. The following applies: read-out: binding affinity to VEGF (Kd).
VEGF, sequence (P15692 214-315 limits assumed): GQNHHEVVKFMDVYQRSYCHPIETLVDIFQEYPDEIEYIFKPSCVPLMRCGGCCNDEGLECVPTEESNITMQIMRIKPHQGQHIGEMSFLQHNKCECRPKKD

On to `C[C@@H]1C[C@H]2[C@@H]3CCC4=CC(=O)C=C[C@]4(C)[C@@]3(F)[C@@H](O)C[C@]2(C)[C@@]1(O)C(=O)COP(=O)(O)O` [dexamethasone sodium phosphate 0.1%, dexamethasone sodium phosphate], for which the “postoperative rate of macular edema” value with PCME is listed as 4.1%. For the molecule `CC(=O)OCC(=O)[C@@]1(O)CC[C@H]2[C@@H]3CCC4=CC(=O)C=C[C@]4(C)[C@H]3[C@@H](O)C[C@@]21C` [prednisolone acetate 1%, prednisolone acetate], the “postoperative rate of macular edema” value in the data set with PCME is listed as 4.0%. As usually defined, the pKd is the Kd on a negative log10 scale, so that one unit is a factor of ten. In the case of “Ranibizumab: recombinant humanized IgG1 kappa isotype monoclonal antibody fragment that binds VEGF-A”, the pKd on VEGF is roughly 9.85.
